# Test results: PMC9784828, “Antimicrobial Activity of Peptide-Coupled Antisense Peptide Nucleic Acids in Streptococcus pneumoniae” (Microbiology Spectrum, 2022)
# Assays:
# S. pneumoniae TIGR4 [1] = assay: Bacterial killing assay (CFU/mL reduction after 6 h); type: cell-based, Streptococcus pneumoniae; settings: TIGR4
# Experimental: The impact of different CPPs on the efficacy of antisense PNAs targeting gyrA and rpoB in S. pneumoniae was tested using an in vitro killing assay ([25]). S. pneumoniae strains were incubated for 6 h with CPP-antisense PNA conjugates. We determined the reduction of bacterial CFU/mL caused by different CPP-coupled antisense PNA constructs compared to an untreated control. Three different CPPs were tested: HIV-1 TAT (TAT), oligolysin (K8), and (RXR)4XB (Table 1). Concentration-dependent bactericidal activity was investigated by treatment of S. pneumoniae TIGR4 in a CPP-antisense PNA conjugate concentration range of 2.5 to 20 μM (Fig. 1).
# After culturing S. pneumoniae strains in BHI, D39 and 19F were diluted to approximately 10^5 CFU/mL in phosphate-buffered saline (PBS):BHI (93%:7%), while TIGR4 was diluted to approximately 10^5 CFU/mL in PBS:BHI (96%:4%). Next, 450-μL volumes of the respective bacterial suspensions, containing approximately 0.5× 10^5 CFU, were transferred to 2-mL reaction tubes. A 50-μL volume of PNA solution was added to a final PNA concentration of 1 to 20 μM or as indicated. Fifty μL H2O served as a mock control. The reaction tubes were incubated for 6 h at 37°C and 7 rpm (Rotor SB3; Stuart, Staffordshire, United Kingdom). The concentration of CPP-PNA that reduced CFU/mL by 50% after 6 h of incubation compared to an untreated control (IC50) was calculated by nonlinear regression analysis using GraphPad Prism software (GraphPad Software, San Diego, CA).
# S. pneumoniae TIGR4 [2] = assay: In vitro time-killing assay (killing kinetics); type: cell-based, Streptococcus pneumoniae; settings: 10 μM, samples every 2 h up to 12 h, n = 3
# Experimental: The antimicrobial activity kinetics of TAT- and (RXR)4XB-conjugated anti-gyrA PNA constructs in S. pneumoniae TIGR4 were studied using an in vitro time-killing assay. Bacteria were treated with 10 μM CPP-antisense PNAs or scrambled control PNAs (Fig. 2). Samples were collected every 2 h following antisense treatment. CFU/mL was determined by plating of serial dilutions and plotted over time. […] In contrast, (RXR)4XB-conjugated anti-gyrA PNA treatment led to a continuous reduction in S. pneumoniae CFU until complete eradication after 12 h.
# For monitoring of killing kinetics, samples were collected 2 to 12 h post-treatment. Viable cell counts were determined by plating appropriate dilutions on BHI agar plates. CFU were determined by visual inspection following overnight incubation at 37°C under a 5% CO2 atmosphere. At time point 0, the viable cell count corresponded to 1 × 10^5 to 3 × 10^5 CFU/mL.
# [3] = test system: Detroit 562 cells infected with S. pneumoniae TIGR4; assay: Cell-based infection model, bacterial CFU; set-up: species or system Streptococcus pneumoniae; settings: MOI 5, 3 h at 37°C, n = 3
# Experimental: Detroit 562 human pharyngeal epithelial cells were infected with S. pneumoniae TIGR4 at a multiplicity of infection (MOI) of 5. Cells were treated with 20 μM (RXR)4XB-anti-gyrA PNA or scrambled control PNA, respectively. As a positive control, 1 μg levofloxacin, corresponding to 3× MIC, was added. Following incubation for 3 h at 37°C, bacterial CFU counts were determined for CPP-antisense PNA-treated samples and compared to those in nontreated samples and in samples containing scrambled control PNAs (Fig. 4A). Treatment with (RXR)4XB-anti-gyrA caused a log CFU reduction of 1. Addition of levofloxacin led to a log CFU reduction of 2.
# The human pharynx carcinoma epithelial cell line Detroit 562 (ATCC CCL138) was cultivated in Dulbecco’s modified Eagle medium (DMEM)/F12 (1:1) (Thermo Fisher Scientific, Schwerte, Germany) supplemented with 10% fetal bovine serum at 37°C and 5% CO2. Confluent Detroit 562 cells were infected with S. pneumoniae TIGR4 at an MOI of 5. Cultures were treated with 20 μM CPP-PNAs or 1 μg levofloxacin, respectively, and incubated for 3 h at 37°C, 5% CO2. After incubation, the supernatant was collected. Adherent cells were detached with Accutase solution (Merck KGaA, Darmstadt, Germany), collected by centrifugation for 10 min at 4,000 × g, and combined with the supernatant. Cells were pelleted by centrifugation, washed twice with PBS, and suspended in PBS. CFU/well was determined following serial dilution and plating on Todd Hewitt Broth, supplemented with Yeast, (THY) agar plates.
# [4] = test system: G. mellonella larvae infected with S. pneumoniae TIGR4; assay: G. mellonella infection model, bacterial load; type: in vivo, Galleria mellonella; settings: 24 h postinfection
# Experimental: To establish the antibacterial effect of PNAs in the invertebrate infection model, we assessed the bacterial loads in infected larvae (Fig. 6). Larvae were infected and subsequently treated with NaCl (mock), 10 nmol CPP-PNA, or levofloxacin (positive control), respectively. From each group, four larvae were homogenized at 24 h postinfection. CFU/larva were determined following serial dilutions of the suspension and plating on selective medium. Treatment with (RXR)4XB-anti-gyrA caused a log CFU reduction of 1 compared to that in the mock-treated larvae. The addition of 1 or 10 μg levofloxacin led to a log CFU reduction of 2 or 6, respectively.
# For determination of bacterial load, larvae were infected and subsequently treated with NaCl (mock), CPP-PNAs, or levofloxacin (positive control). At 24 h after infection, larvae were homogenized. Following serial dilution, the suspension was plated on selective medium (BD Columbia CNA Agar with 5% sheep blood; Becton Dickinson GmbH, Heidelberg, Germany). Agar plates were incubated overnight at 37°C, 5% CO2. CFU/larva was determined by visual inspection. Colony identity was verified on a random basis by colony PCR using ply-specific primers.
# [5] = test system: G. mellonella larvae infected with S. pneumoniae TIGR4; assay: G. mellonella infection model, larval survival; type: in vivo, Galleria mellonella; settings: 7 days; for Survival of infected larvae: 30 min postinfection, mock 19%, n = 40
# Experimental: Antimicrobial efficiency of CPP-antisense PNA conjugates was evaluated in vivo employing a G. mellonella infection and treatment model ([22], [28]). Larvae were infected with S. pneumoniae strain TIGR4 and subsequently treated with 10 nmol CPP-anti-gyrA PNAs. Treatment with levofloxacin served as a positive control. Larval survival was observed over 7 days.
# Larvae of the greater wax moth (G. mellonella) were obtained from Bugs-International GmbH (Irsingen/Unterfeld, Germany). For infection experiments, S. pneumoniae TIGR4 was grown for 7 h in BHI, washed twice in a 0.9% NaCl solution, and suspended in 0.9% NaCl to a final concentration of approximately 1 × 10^8 CFU/mL. Larvae weighing 150 to 200 mg were infected with 1 × 10^6 to 3 × 10^6 CFU/larva. Bacteria were injected into the hemocoel of the larvae between the last two pairs of prolegs using a microapplicator (World Precision Instruments, LLC, Sarasota, FL) and a fine-dosage syringe (Omnican-F, 0.01 to 1 mL, 0.30 × 12 mm; B. Braun AG, Melsungen, Germany). As mock control, 0.9% NaCl (PNA experiment) or 0.9% NaCl/3% DMSO (levofloxacin experiment) was injected. For CPP-PNA treatment, larvae were injected 30 min postinfection with 10 nmol CPP-PNA/larva. For levofloxacin treatment, larvae were injected 30 min postinfection with 1 or 10 μg levofloxacin/larva. Larvae were incubated for 7 days, and survival was monitored daily ([22]).
compound,measurement,setting,value
"KKKKKKKK-eg-tgcattaata [K8-anti-gyrA PNA, Oligolysin (K8) coupled to antisense PNA against gyrA]",Reduction of bacterial CFU/mL compared to untreated control (in words),"S. pneumoniae TIGR4 [1]; 6 h, concentration range 2.5 to 20 μM, n = 5",no reduction of CFU/mL
"RXRRXRRXRRXRXB-eg-aatgattact [(RXR)4XB-anti-gyrA scPNA, (RXR)4XB-coupled scrambled control PNA for anti-gyrA]",Bacterial counts over time (in words),S. pneumoniae TIGR4 [2],did not cause reduced bacterial counts
same,log CFU reduction in infected Detroit 562 cells,[3]; 20 μM CPP-PNA,No significant changes in bacterial CFU
same,log CFU reduction of bacterial load compared to mock-treated larvae,"[4]; 10 nmol CPP-PNA/larva, n = 4 larvae per group, three experiments",no significant changes in the bacterial CFU
"C[C@H]1COc2c(N3CCN(C)CC3)c(F)cc3c(=O)c(C(=O)O)cn1c23 [levofloxacin, reference compound]",log CFU reduction in infected Detroit 562 cells,"[3]; 1 μg levofloxacin, corresponding to 3× MIC",2
same,Survival of infected larvae,[5]; 1 μg levofloxacin/larva (approx. 2.5× MIC),40%
same,Increase of survival rate,[5]; 1 μg levofloxacin/larva,21%
same,Survival of infected larvae,[5]; 10 μg levofloxacin/larva (approx. 25× MIC),74%
same,log CFU reduction of bacterial load compared to mock-treated larvae,[4]; 1 μg levofloxacin,2
same,log CFU reduction of bacterial load compared to mock-treated larvae,[4]; 10 μg levofloxacin,6
"TAT: unconjugated cell-penetrating peptide HIV-1 TAT (48–57) (GRKKRRQRRR; UniProt P04608 48-57, looked up, fragment) [reference compound]",Antibacterial effects of unconjugated CPP (in words),S. pneumoniae TIGR4 [1]; Fig. S3,higher than those of the conjugated peptides
